Four compounds from PMC9917184, “Synthesis and Biological Evaluation of Potential Oncoimmunomodulator Agents” (International Journal of Molecular Sciences, 2023) can be followed below.

Assay [1] deals with Jurkat T cells. Put plainly: Jurkat T cell viability in co-culture with cancer cells (flow cytometry count). The assay is classed as cell-based. Conditions: Homo sapiens, 24 h, read-out: percentage of living Jurkat cells relative to non-treated co-cultures. Here is the method:
(§1) The effect of the synthesized compounds on tumor cell proliferation in the presence of PD-1-expressing Jurkat T cells was also studied. This assay was carried out, as in the previous experiments, in the HT29, MCF7, and A549 cell lines (see Table 4). Interferon γ-stimulated cancer cells were treated for 24 h with the compounds at 100 μM in presence of Jurkat T cells. Then, cells were counted using flow cytometry. The percentage of living cells relative to non-treated co-cultures (control) was established for both cancer and immune cells in every co-culture.
(§2) To study the effect of the compounds on the cell viability in co-culture with Jurkat T cells or THP-1 cells, 10^5 or 2 × 10^5 of the corresponding cancer cells line per well were seeded and incubated for 24 h, then the medium was changed by one cell culture medium supplemented with IFN-γ (10 ng/mL; human, Invitrogen®) and containing 5 × 10^5 or 10^5 Jurkat T cells or THP-1, respectively, per well and 100 µM of the corresponding compound or DMSO for the […] control. After 24 h/48 h of incubation, supernatants were collected to determine Jurkat T or THP-1 living cells, and on the other hand, corresponding cancer cells were collected with trypsin. Both types of suspension cells were fixed with 4% in PBS paraformaldehyde and counted by flow cytometry.

Assay [2] relates to c-Myc. Kind of assay: Total c-Myc relative quantification by flow cytometry in cancer cell lines. The assay is classed as cell-based, human. Conditions: 24 h. Here is the method:
(§3) The effect of these triazole derivates on c-Myc and PD-L1 was measured in three different cancer cell lines (HT-29, MCF-7, A-549) by flow cytometry. Thus, cells were incubated for 24 h with the corresponding compound at a concentration of 100 μM. Dimethyl sulfoxide (DMSO)-treated cells were used as the negative control, and a PD-L1 inhibitor, BMS-8 [29, 31], was used as a reference control. After permeabilization and fixation, cells were treated with anti-PD-L1 conjugated to AlexaFluor®647 and anti-c-Myc conjugated to fluorescein to determine the amount of both targets related to the negative control. Table 1 show the results in terms of the percentage of the detected target in relation to the negative control. This assay was carried out on cancer cell lines HT-29, MCF-7, and A-549.
(§4) To study the effect of the compounds on every biological target in cancer cell lines, the compounds were used at a 100 µM dose.
(§5) For the assay, 10^5 cells per well were incubated for 24 h with the corresponding dose of the tested compound in a total volume of 500 μL of their growth media.
(§6) To detect total PD-L1 and c-Myc, after the cell treatments, they were collected and fixed with 4% in PBS paraformaldehyde. After fixation, a treatment with 0,5% in PBS Triton™ X-100 was performed, and finally, cells were stained with FITC Mouse monoclonal Anti-c-Myc (ab223913) and Alexa Fluor® 647 Rabbit monoclonal Anti-PD-L1 (ab215251).

Assay [3] has as its system membrane VEGFR-2. Kind of assay: Membrane VEGFR-2 relative quantification by flow cytometry in cancer cells co-cultured with Jurkat T cells. The assay is classed as cell-based, human. Conditions: 100 μM, 24 h, relative to non-treated co-cultures. Here is the method:
(§7) We determined by flow cytometry the effect of these compounds on the expression of membrane PD-L1 in cancer cells when they were co-cultured with immune cells. Thus, interferon γ-stimulated cancer cells were treated for 24 h with the compounds at 100 μM in presence of Jurkat T cells. Then, cells were fixed and treated with anti-PD-L1 conjugated to AlexaFluor®647. We took advantage of the versatility of flow cytometry to simultaneously measure the expression of membrane VEGFR-2 by using anti-VEGFR-2 conjugated to fluorescein.
(§8) To study the effect of the compounds on every biological target in co-cultured cancer cell lines, the compounds were incubated for 24h as described before.
(§9) To detect membrane PD-L1 and VEGFR-2, after the cell treatments, they were collected, fixed with 4% in PBS paraformaldehyde, and stained with FITC Mouse monoclonal Anti-Human VEGFR-2 (ab184903) and Alexa Fluor® 647 Rabbit monoclonal Anti-PD-L1 (ab215251).
(In flow cytometry, cells or beads pass a laser one at a time.)

Assay [4] deals with A-549. Kind of assay: A-549 cell viability in co-culture with Jurkat T cells (flow cytometry count). It counts as cell-based, human. The settings on record: 24 h; for viability at 100 µM: Homo sapiens, A549, A-549/Jurkat T co-culture, IFN-γ stimulated, read-out: percentage of living A-549 cells relative to non-treated co-cultures. Here is the method: as §1, §2
Assay [5] relates to HT-29. Kind of assay: HT-29 cell viability in co-culture with Jurkat T cells (flow cytometry count). It counts as cell-based, human. Conditions: Homo sapiens, HT-29/Jurkat T co-culture, IFN-γ stimulated, 24 h, read-out: percentage of living HT-29 cells relative to non-treated co-cultures. Here is the method: as §1, §2
Assay [6] deals with T1, membrane PD-L1 (Homo sapiens, UniProt Q9NZQ7).
T1 construct: Alexa Fluor® 647 Rabbit monoclonal Anti-PD-L1 (ab215251); endogenous in cells; host or cells: HT-29, MCF-7, A-549 (A17: MCF-7 only; A14: IFN-gamma-stimulated cancer cells co-cultured with Jurkat T cells)
Kind of assay: Membrane PD-L1 relative quantification by flow cytometry in cancer cells co-cultured with Jurkat T cells. The assay is classed as cell-based. Conditions: Jurkat, 24 h; for remaining activity at 100 µM: relative to non-treated co-cultures, read-out: % PDL1 (membrane). Here is the method: as §7, §8, §9

The target of assay [7] is PD-L1 (Homo sapiens, UniProt Q9NZQ7). Kind of assay: Total PD-L1 relative quantification by flow cytometry in cancer cell lines. More on the design: Alexa Fluor® 647 Rabbit monoclonal Anti-PD-L1 (ab215251); endogenous in cells; host or cells: HT-29. Conditions: 24 h, total PD-L1 relative to negative control (DMSO). The assay is classed as cell-based. Here is the method: as §3, §4, §5, §6

Assay [8] deals with MCF-7. Put plainly: MCF-7 cell viability in co-culture with Jurkat T cells (flow cytometry count). It counts as cell-based, human. The settings on record: 24 h; for viability at 100 µM: Homo sapiens, MCF7, MCF-7/Jurkat T co-culture, IFN-γ stimulated, read-out: percentage of living MCF-7 cells relative to non-treated co-cultures. Here is the method:
as §1, §2

[9] abbreviates: A-549, 100 µM, relative to negative control (DMSO).
Setting [10] is: HT-29, 100 µM, detected target relative to negative control (DMSO).
Where [11] appears, read: MCF-7, 100 µM, relative to negative control (DMSO).
Setting [12] is: A549 co-cultured with Jurkat T cells.
[13] abbreviates: HT29 co-cultured with Jurkat T cells.
Where [14] appears, read: MCF7 co-cultured with Jurkat T cells.
The mark [15] stands for this setting: co-cultured with Jurkat T cells, 100 μM.

Molecules are shown by their SMILES. Like-named read-outs stand apart in the source and are kept apart here.

T1 sequence (Q9NZQ7 19-290): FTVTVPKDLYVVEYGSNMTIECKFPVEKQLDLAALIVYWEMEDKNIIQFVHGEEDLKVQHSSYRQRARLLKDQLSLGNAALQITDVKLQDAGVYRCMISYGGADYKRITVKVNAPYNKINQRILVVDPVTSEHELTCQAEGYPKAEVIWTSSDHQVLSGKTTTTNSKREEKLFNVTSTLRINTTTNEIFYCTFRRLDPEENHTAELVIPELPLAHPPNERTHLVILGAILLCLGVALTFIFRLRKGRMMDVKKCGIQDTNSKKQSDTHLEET
PD-L1, sequence (Q9NZQ7 19-290): as above

`COc1ccc(C(OCCc2ccc(CCn3cc(-c4ccccc4)nn3)cc2)(c2ccccc2)c2ccc(OC)cc2)cc1` [Compound 1, 1-(4-(2-(bis(4-methoxyphenyl)(phenyl)methoxy)ethyl)phenethyl)-4-phenyl-1H-1,2,3-triazole]: the viability at 100 µM in assay [1] (A-549/Jurkat T co-culture) came out at 88 ± 18%; in assay [1] (HT-29/Jurkat T co-culture), 108 ± 6%; in assay [1] (MCF-7/Jurkat T co-culture) it was 86 ± 13%; in assay [4] it was 127 ± 1%; in assay [5], 81 ± 12%; in assay [8], 56 ± 6%. Moreover, the “% c-Myc” value in assay [2] (setting [9]) is recorded as 182 ± 27%; in assay [2] (setting [10]) it was 135 ± 5%; in assay [2] (setting [11]), 73 ± 1%. For the same compound, the “%VEGFR2 (membrane)” value in assay [3] (setting [12]) is 79 ± 7%; in assay [3] (setting [13]), 85 ± 0%; in assay [3] (setting [14]) it was 76 ± 1%. Moreover, the remaining activity at 100 µM in assay [6] (setting [12]) came out at 96 ± 9%; in assay [6] (setting [13]) it was 143 ± 48%; in assay [6] (setting [14]) it was 109 ± 9%; in assay [7] (A549, A-549, 100 µM) it was 63 ± 16%; in assay [7] (HT-29, 100 µM), 85 ± 3%; in assay [7] (MCF7, MCF-7, 100 µM) it was 90 ± 8%.
On to `OCCc1ccc(CCn2cc(-c3ccccc3)nn2)cc1` [Compound 2, 2-(4-(2-(4-phenyl-1H-1,2,3-triazol-1-yl)ethyl)phenyl)ethan-1-ol], for which the viability at 100 µM amounted to 89 ± 17% in assay [1] (A-549/Jurkat T co-culture); 107 ± 4% in assay [1] (HT-29/Jurkat T co-culture); 87 ± 22% in assay [1] (MCF-7/Jurkat T co-culture); 123 ± 25% in assay [4]; 79 ± 20% in assay [5]; 80 ± 6% in assay [8]. The “% c-Myc” value in assay [2] (setting [9]) came to 79 ± 10%; in assay [2] (setting [10]), 115 ± 8%; in assay [2] (setting [11]) it was 122 ± 13%. Further, the “%VEGFR2 (membrane)” value is 90 ± 10% in assay [3] (setting [12]), 101 ± 11% in assay [3] (setting [13]) and 86 ± 2% in assay [3] (setting [14]). For the same compound, the remaining activity at 100 µM in assay [6] (setting [12]) worked out at 60 ± 6%; in assay [6] (setting [13]), 124 ± 34%; in assay [6] (setting [14]), 82 ± 6%; in assay [7] (A549, A-549, 100 µM) it was 76 ± 2%; in assay [7] (HT-29, 100 µM), 82 ± 6%; in assay [7] (MCF7, MCF-7, 100 µM), 115 ± 7%.
For `COc1ccc(C(OCCc2ccc(CCn3cc(-c4ccccc4OC)nn3)cc2)(c2ccccc2)c2ccc(OC)cc2)cc1` [Compound 13, 1-(4-(2-(bis(4-methoxyphenyl)(phenyl)methoxy)ethyl)phenethyl)-4-(2-methoxyphenyl)-1H-1,2,3-triazole], the viability at 100 µM amounted to 90 ± 2% in assay [1] (A-549/Jurkat T co-culture); 110 ± 9% in assay [1] (HT-29/Jurkat T co-culture); 79 ± 5% in assay [1] (MCF-7/Jurkat T co-culture); 103 ± 4% in assay [4]; 153 ± 15% in assay [5]; 43 ± 1% in assay [8]. Moreover, the c-Myc inhibition rate in assay [2] (A-549, 100 μM) is recorded as 50%. Further, the “% c-Myc” value in assay [2] (setting [9]) amounted to 51 ± 2%; in assay [2] (setting [10]), 68 ± 3%; in assay [2] (setting [11]) it was 77 ± 5%. Also, the “%VEGFR2 (membrane)” value in assay [3] (setting [12]) was found to be 80 ± 8%; in assay [3] (setting [13]), 89 ± 2%; in assay [3] (setting [14]), 120 ± 8%. Moreover, the remaining activity at 100 µM in assay [6] (setting [12]) is 83 ± 6%; in assay [6] (setting [13]), 57 ± 12%; in assay [6] (setting [14]), 33 ± 4%; in assay [7] (A549, A-549, 100 µM), 120 ± 5%; in assay [7] (HT-29, 100 µM), 102 ± 1%; in assay [7] (MCF7, MCF-7, 100 µM), 87 ± 6%. For the same compound, the inhibition at 100 µM in assay [6] (HT-29 co-cultured with Jurkat T cells, read-out: membrane PD-L1 inhibition rate) was 40 to 50%. In addition, the “inhibition rate of MCF-7 cell viability” value in assay [8] (setting [15]) is recorded as “around 60%”.
Consider `COc1ccc(-c2cn(CCc3ccc(CCO)cc3)nn2)cc1` [Compound 10, 2-(4-(2-(4-(4-methoxyphenyl)-1H-1,2,3-triazol-1-yl)ethyl)phenyl)ethan-1-ol], for which the viability at 100 µM in assay [1] (A-549/Jurkat T co-culture) was 100 ± 4%; in assay [1] (HT-29/Jurkat T co-culture) it was 120 ± 23%; in assay [1] (MCF-7/Jurkat T co-culture), 148 ± 20%; in assay [4] it was 103 ± 4%; in assay [5] it was 145 ± 16%; in assay [8], 94 ± 2%. In addition, the “% c-Myc” value in assay [2] (setting [9]) is reported as 126 ± 2%; in assay [2] (setting [10]), 83 ± 8%; in assay [2] (setting [11]), 91 ± 6%. In addition, the “%VEGFR2 (membrane)” value in assay [3] (setting [12]) is on record as 107 ± 1%; in assay [3] (setting [13]) it was 94 ± 6%; in assay [3] (setting [14]) it was 105 ± 3%. Moreover, in assay [4] (setting [15]), the “inhibition rate of A-549 cell viability” value is listed as “no activity”. Besides, the remaining activity at 100 µM came to 84 ± 6% in assay [6] (setting [12]); 126 ± 7% in assay [6] (setting [13]); 48 ± 7% in assay [6] (setting [14]); 62 ± 14% in assay [7] (A549, A-549, 100 µM); 82 ± 2% in assay [7] (HT-29, 100 µM); 114 ± 9% in assay [7] (MCF7, MCF-7, 100 µM).

A word on the inhibition: it is the change of the read-out against control, counted positive when it falls.
